Reference: US20240024338A1, “CARBIDOPA AND L-DOPA PRODRUGS AND METHODS OF USE” (AbbVie Inc., priority 2016, published 2024)

Columns and labels:
[1] = 1-Day stability study of prodrugs in aqueous solution; assay type: physicochemical; conditions: aqueous solution 80 μg/mL, ambient storage, pH 7.0
Procedure: The L-dopa phosphate prodrugs and the carbidopa phosphate prodrugs were evaluated in a stability study.

[2] = 1-Day stability study, diphosphate combination solution; assay type: physicochemical; conditions: combination solution: L-dopa 3′,4′-diphosphate 35 mg/mL + carbidopa 3′,4′-diphosphate 8.7 mg/mL, pH 6.2, room temperature, nitrogen purged
Procedure: In addition, a solution combining the diphosphates of each compound (L-dopa 3′, 4′-diphosphate at 35 mg/mL and carbidopa 3′, 4′-diphosphate at 8.7 mg/mL) was monitored over one day at room temperature. This sample was purged with nitrogen to remove oxygen.

[3] = Phosphate prodrug solubility study in water; assay type: physicochemical; conditions: water, ambient, visual assessment, pH 5.5, Amorphous
Procedure: The L-dopa phosphate prodrugs and the carbidopa phosphate prodrugs were evaluated in a solubility study. The solubility values of the phosphate prodrugs in water under ambient conditions were determined by visual assessment. Table 13-A reports the results of the study, including the measured values for L-dopa and carbidopa.

[4] = In vitro bioconversion study (blood), human; assay type: in vitro ADME; conditions: prodrug 2.5 μg/mL, 37° C.
Procedure: (§2) The in vitro bioconversion of the L-dopa phosphate prodrugs to L-dopa and the carbidopa phosphate prodrugs to carbidopa was evaluated in several studies. In brief, the L-dopa and carbidopa phosphate prodrugs (2.5 μg/mL) were incubated with tissue homogenate or fractions from rats, mini-pigs, or human, including blood, skin homogenate (3 mg/mL), liver microsomes (1 mg/mL), liver S9 fraction (1 mg/mL), kidney S9 fraction (1 mg/mL), and intestine S9 fractions (1 mg/mL). The reaction mixtures were incubated at 37° C. for 5 to 6 time points within 1 to 2 hours. At the end of each time point, the reaction mixtures were quenched by 2 to 3 volumes of 5% trichloroacetic acid in water. After quenching, the mixtures were centrifuged at 3000 rpm for 20 minutes, and the supernatants were analyzed by LC-MS for quantitation of the prodrug, L-dopa or carbidopa. The in vitro bioconversion was assessed by monitoring both time-dependent depletion of the prodrug and the formation of the corresponding L-dopa or carbidopa.

[5] = In vitro bioconversion study (blood), mini-pig; assay type: in vitro ADME; conditions: prodrug 2.5 μg/mL, 37° C.
Procedure: as §2

[6] = In vitro bioconversion study (skin homogenates), human; conditions: human skin homogenate 3 mg/mL, prodrug 2.5 μg/mL, 37° C.
[7] = In vitro bioconversion study (skin homogenates), rat; conditions: rat skin homogenate 3 mg/mL, prodrug 2.5 μg/mL, 37° C.
[8] = In vitro bioconversion study (skin homogenates), mini-pig; conditions: mini-pig skin homogenate 3 mg/mL, prodrug 2.5 μg/mL, 37° C.
[9] = In vitro bioconversion study, human liver microsomes; assay type: in vitro ADME; conditions: human liver microsomes 1 mg/mL, prodrug 2.5 μg/mL, 37° C.
Procedure: as §2

[10] = In vitro bioconversion study, liver S9 fraction, rat; assay type: in vitro ADME; conditions: rat liver S9 fraction 1 mg/mL, prodrug 2.5 μg/mL, 37° C.
Procedure: as §2

[11] = In vitro bioconversion study, liver S9 fraction, mini-pig; assay type: in vitro ADME; conditions: mini-pig liver S9 fraction 1 mg/mL, prodrug 2.5 μg/mL, 37° C.
Procedure: as §2

[12] = In vitro bioconversion study, liver S9 fraction, human; assay type: in vitro ADME; conditions: human liver S9 fraction 1 mg/mL, prodrug 2.5 μg/mL, 37° C.
Procedure: as §2

[13] = In vitro bioconversion study, kidney S9 fraction, rat; assay type: in vitro ADME; conditions: rat kidney S9 fraction 1 mg/mL, prodrug 2.5 μg/mL, 37° C.
Procedure: as §2

[14] = In vitro bioconversion study, kidney S9 fraction, human; assay type: in vitro ADME; conditions: human kidney S9 fraction 1 mg/mL, prodrug 2.5 μg/mL, 37° C.
Procedure: as §2

[15] = In vitro bioconversion study (intestinal S9 fractions), human; assay type: in vitro ADME; conditions: human intestinal S9 fraction 1 mg/mL, prodrug 2.5 μg/mL, 37° C.
Text: (§1) The t1/2 appeared to be shorter in human intestinal S9 than in rat intestinal S9.

[16] = In vitro bioconversion study (intestinal S9 fractions), rat; assay type: in vitro ADME; conditions: rat intestinal S9 fraction 1 mg/mL, prodrug 2.5 μg/mL, 37° C.
Text: as §1

rats = assay: Local tolerability in rats, single SC bolus dose; assay type: in vivo; conditions: concentrations up to 125 mg/mL
[17] = In vitro bioconversion study (blood), rat; conditions: prodrug 2.5 μg/mL, 37° C.
Procedure: The in vitro bioconversion of the L-dopa phosphate prodrugs to L-dopa and the carbidopa phosphate prodrugs to carbidopa was evaluated in several studies. […] The reaction mixtures were incubated at 37° C. for 5 to 6 time points within 1 to 2 hours. At the end of each time point, the reaction mixtures were quenched by 2 to 3 volumes of 5% trichloroacetic acid in water. After quenching, the mixtures were centrifuged at 3000 rpm for 20 minutes, and the supernatants were analyzed by LC-MS for quantitation of the prodrug, L-dopa or carbidopa. The in vitro bioconversion was assessed by monitoring both time-dependent depletion of the prodrug and the formation of the corresponding L-dopa or carbidopa.

[18] = listed as diphosphate prodrug of L-dopa

## N[C@@H](Cc1ccc(OP(=O)(O)O)c(OP(=O)(O)O)c1)C(=O)O [L-dopa 3′,4′-diphosphate]
[1]
  % Remaining After One Day: >99%
[2]
  % Remaining After One Day: >99%
[3]
  Solubility: >330 mg/mL
[4]
  L-Dopa or Carbidopa Formation: Yes
  T1/2: 138 min
[5]
  L-Dopa or Carbidopa Formation: Yes
  T1/2: 125 min
[6]
  L-Dopa or Carbidopa Formation: No
  T1/2: stable
[7]
  L-Dopa or Carbidopa Formation: No
  T1/2: stable
[8]
  L-Dopa or Carbidopa Formation: No
  T1/2: stable
[9]
  stability and formation of L-dopa or carbidopa: stable without formation of L-dopa or carbidopa observed
[10]
  stability and formation of L-dopa or carbidopa: stable without formation of L-dopa or carbidopa observed
[11]
  stability and formation of L-dopa or carbidopa: stable without formation of L-dopa or carbidopa observed
[12]
  stability and formation of L-dopa or carbidopa: stable without formation of L-dopa or carbidopa observed
[13]
  stability and formation of L-dopa or carbidopa: stable without formation of L-dopa or carbidopa observed
[14]
  stability and formation of L-dopa or carbidopa: stable without formation of L-dopa or carbidopa observed
[15]
  L-Dopa or Carbidopa Formation: Yes
[15]; [18]
  T1/2: rapidly dephosphorylated
[16]
  L-Dopa or Carbidopa Formation: Yes
[16]; [18]
  T1/2: rapidly dephosphorylated
rats
  clinical signs or microscopic findings of local intolerance: no adverse clinical signs or microscopic findings indicative of local intolerance
[17]
  L-Dopa or Carbidopa Formation: Yes
  T1/2: 6 min
